Experimental data published in US6013672A, “Agonists of metabotropic glutamate receptors and uses thereof” (UAB Research Foundation, priority 1997, dated 2000).
Read-outs that look alike come from different tables or passages of the source.

Assays:
[1] = test system: hippocampal astrocytes; test: Extracellular glutamate [Glu]o released by astrocyte cultures (bioluminescence); format: cell-based, rat; details: for effect on [Glu]o / glutamate release: cells treated for 24 hours, then MEM; for order of potency in mimicking ACPD effect on glutamate release: FIG. 7B; for effect on [Glu]o when Na+ gradient is disrupted: 1.0 mM Ouabain, 1.0/5.0 mM L-AA, 30 minute treatment; for minimal effective concentration: Rattus norvegicus, Astrocyte; for antagonism of ACPD effects on [Glu]o: applied simultaneously with ACPD; for antagonism of the effect of L-CCG-I on [Glu]o: data not shown
[2] = test system: hippocampal astrocytes; test: Intracellular glutamate content [Glu]i of astrocytes; format: cell-based, rat
Protocol: For experiments in which [Glu]o concentrations were assessed by the bioluminescence method, cells were maintained in glutamate-depleted medium in the presence or absence of the agonists/antagonist combination of interest. […] After the incubation period, the stimulation media (containing drugs of interest) were aspirated and cells were washed twice with MEM and allowed to remain for 30 to 60 minutes in drug free MEM supplemented with 20 mM glucose prior to taking media samples for glutamate measurements. To assess acute drug effects, untreated cells were washed and the reagent of interest applied in glucose supplemented MEM. Cells were harvested in 0.3 N NaOH and neutralized with 0.3 N HCl. Aliquots were stored in -20° C. for protein and [Glu]i determination. Glutamate standards used for calibration were prepared in MEM (For [Glu]i in 0.15 N NaCl).

[3] = test system: dopaminergic neurons; test: Cell death of dopaminergic neurons induced by glutamate or MPTP; format: cell-based, rat; details: 0.2 mM
Protocol: Cell death of dopaminergic neurons induced by glutamate, and the role of glial glutamate transport in protection of cell death at the cellular level were studied as it relates to Parkinson's disease. […] Thus, glutamate concentrations as low as 3-5 μM induced rapid cell death (FIGS. 11 and 12). Glutamate concentrations were also measured in the normal brain. They are typically around 1 μM, below the toxic level for dopaminergic neurons. […] This late onset of glutamate toxicity is compatible with the late onset of Parkinson's disease.

[4] = test system: glial cells; test: Glial glutamate uptake and extracellular glutamate with MPTP/MPP+ and t-ACPD; format: cell-based; details: for elevations of extracellular glutamate levels: glial cells
Protocol: The normally low glutamate levels in the brain are established and maintained in glial cells by non-vesicular uptake of glutamate through a Na^+ -dependent transporter (FIG. 14). Once taken up, glutamate can be converted to glutamine and recycled for neurotransmitter synthesis in neurons (FIG. 14). If glial cells in culture are exposed to high glutamate concentrations (e.g., 100 μM), they will remove it from the extracellular space and essentially "detoxify" the neuronal environment. […] Under those conditions, extracellular glutamate levels are elevated to 7 μM (FIG. 16), which is toxic to most surrounding neurons.
Impaired glial glutamate transport may contribute to the loss of dopaminergic neurons in Parkinson's disease. Thus, stimulation of this pathway would be neuroprotective. A drug and its receptor on glial cells was identified that allows enhanced glutamate detoxification. Specifically, trans-ACPD (trans-1-amino-1,3-cyclopentane dicarboxylic acid) (t-ACPD), a group II metabotropic glutamate receptor agonist, enhanced glial glutamate uptake (FIG. 17). It's actions were 2-fold; (i) it enhanced glutamate uptake by up to 80%, and (ii) it decreased non-specific release of glutamate, effectively trapping glutamate inside glial cells. In fact, the release of glutamate decreased to such a large extent that it almost made the transporter rectify, e.g. allowing only influx and preventing outflow of glutamate (FIG. 18). […] Using antibodies and further pharmacological studies, the receptor that is responsible for these effects has been identified as mGluR2/3.
In Parkinson's disease, it is believed that neurons may die of excitotoxic exposure to glutamate. The present invention determined that MPTP directly effects glutamate uptake into astrocytes (FIG. 21, top left). […] This increased release may be sufficient to explain some of the subsequent neurodegeneration.

[5] = test system: hippocampal astrocytes; test: 3H-D-aspartate (glutamate/aspartate) uptake in astrocytes; format: cell-based, rat; details: for effect on aspartate uptake: KA or NMDA 1 mM, 24 hours
Protocol: Uptake procedures were essentially identical to those previously described (Kimelberg et al. 1989; Ye et al., 1996). Briefly, 5-10 minutes before assessing uptake, astrocytes were washed and kept in a solution containing (in mM): NaCl 122, KCl 3, MgSO4 0.4, KH2 PO4 1.2, NaHCO3 25, D-glucose 10, and CaCl2 1.3, at 37° C., bubbled with 5%/95% CO2 /O2. Then the cells were switched to the above solution supplemented with 0.1 mM D-aspartate and 0.4 μCi/ml ^3 H-D-aspartate. Glutamate/aspartate uptake was determined over a 10 or 30 minutes period and was terminated by three quick washes, twice with ice cold 0.29 M sucrose solution with 10 mM Tris Nitrate, 0.5 mM Ca(NO3)2, (pH 7.40 by NaOH) and then with ice cold PBS. Cells were then harvested after a 30 minute incubation in 0.3 N NaOH solution (37° C.) and ^3 H activity was determined in a liquid scintillation counter (Beckman). Total uptake was normalized to protein content to eliminate variability due to cell number. Protein levels were determined using the bicinchoninic acid (BCA) assay (Pierce; Rockford, Ill.).

[6] = co-incubation, Forskolin 10 μM, Db-cAMP 0.2 mM

## CCCC(=O)Nc1ncnc2c1ncn2[C@@H]1O[C@@H]2COP(=O)(O)O[C@H]2[C@H]1OC(=O)CCC [Db-cAMP, Dibutylyl-cAMP]
[1]; [6]
  effect on ACPD effects on [Glu]o: neither blocked nor facilitated the ACPD effects on [Glu]o
[1]; up to highest concentration tested, 3 mM
  effect on [Glu]o alone: did not significantly change [Glu]o

## N[C@@H](CS(=O)O)C(=O)O [L-CSA, L-cystein-sulfinic acid]
[1]
  effect on [Glu]o / glutamate release: ineffective

## C=C[C@@]1(C)CC(=O)[C@]2(O)[C@@]3(C)[C@@H](O)CCC(C)(C)[C@@H]3[C@H](O)[C@H](OC(C)=O)[C@@]2(C)O1 [Forskolin]
[1]; [6]
  effect on ACPD effects on [Glu]o: neither blocked nor facilitated the ACPD effects on [Glu]o

## N[C@H](C(=O)O)[C@H]1C[C@@H]1C(=O)O [L-CCG-I, (2S,3S,4S)-2-(carboxycyclopropyl) glycine]
[1]
  order of potency in mimicking ACPD effect on glutamate release: S-4CPG>1S3R-ACPD>L-CCG-I>1S3S-ACPD=QA
  effect on [Glu]o / glutamate release: reduce [Glu]o in a dose-dependent manner

## N[C@@H](CCCC(=O)O)C(=O)O [L-AA, L-aminoadipic acid]
[1]
  effect on [Glu]o when Na+ gradient is disrupted: elevated [Glu]o

## N[C@H](C(=O)O)[C@H](O)C(=O)O (relative stereo) [THA, DL-threo-β-hydroxyaspartate]
[1]; 5-2000 μM in glutamate free MEM, 25 and 70 minutes
  glutamate release induced by transportable uptake inhibitor: increased glutamate release from astrocytes in a dose- and time-dependent manner
[1]; glutamate free MEM, read-out: concentration giving significant increases in glutamate release
  minimal effective concentration: > 100 µM
[2]; Rattus norvegicus, Astrocyte, 70 min, 70 minutes incubation with 500 μM, read-out: cellular glutamate content
  activity at 500 µM: 110 ± 14.7%

## N[C@@H](Cn1oc(=O)[nH]c1=O)C(=O)O [QA, Quisqualic acid]
[1]
  order of potency in mimicking ACPD effect on glutamate release: S-4CPG>1S3R-ACPD>L-CCG-I>1S3S-ACPD=QA
  effect on [Glu]o / glutamate release: reduce [Glu]o in a dose-dependent manner

## CN1CC=C(c2ccccc2)CC1 [MPTP, 1-methyl-4-phenyl-1-1,2,3,6-tetrahydropyridine]
[3]
  neuronal cell death: wide-spread cell death within less than 24 hours
[4]
  ability of glial cells to detoxify glutamate: compromised in a dose dependent manner
  extracellular glutamate levels elevated to: 7 µM
  elevations of extracellular glutamate levels: up to 5 fold

## N[C@H](C(=O)O)c1ccc(C(=O)O)cc1 [S-4CPG, (S)-4-carboxyphenylglycine]
[1]
  order of potency in mimicking ACPD effect on glutamate release: S-4CPG>1S3R-ACPD>L-CCG-I>1S3S-ACPD=QA
  effect on [Glu]o / glutamate release: reduce [Glu]o in a dose-dependent manner

## N[C@@H](CCP(=O)(O)O)C(=O)O [L-AP4, L(+)-2-amino-4-phosphonobutyric acid]
[1]
  effect on [Glu]o / glutamate release: ineffective

## cholera toxin
[1]
  effect on ACPD effects on [Glu]o: neither inhibited nor mimicked ACPD effects

## N[C@]1(C(=O)O)CC[C@H](C(=O)O)C1 [1R3S-ACPD, (1R,3S)-1-aminocyclopentane-1,3-dicarboxylic acid]
[1]; 24 hours treatment, read-out: concentrations required to achieve any significant effect on glutamate release
  minimal effective concentration: > 50 µM
[5]
  effect on aspartate uptake: No significant effects
[2]; Rattus norvegicus, Astrocyte, 24 h, highest dose used (1 mM), chronic treatment
  activity at 1000 µM: 18.4 ± 0.9%

## C[C@@H]1O[C@@H](O[C@H]2C[C@@H](O)[C@]3(CO)[C@H]4[C@H](O)C[C@]5(C)[C@@H](C6=CC(=O)OC6)CC[C@]5(O)[C@@H]4CC[C@]3(O)C2)[C@H](O)[C@H](O)[C@H]1O [Ouabain]
[1]
  effect on [Glu]o when Na+ gradient is disrupted: elevated [Glu]o

## N[C@@]1(C(=O)O)CC[C@@H](C(=O)O)C1 [ACPD]
[1]
  persistence of effects (FIG. 6 Off curve): over 10 hours
  preincubation time for maximal effect (FIG. 6 On curve): > 6 h
[1]; 10 hours after ACPD had been washed off
  effect remaining after washout: 50%
[1]; 24 hours treatment, then ACPD free glutamate-depleted medium
  time for effect to return to control levels after washout: about 20 hours
[1]; astrocytes cultured from animals >P10, on average
  reduction in the steady-state [Glu]o: ≈ 5 fold
[1]; astrocytes cultured from younger animals
  reduction in the steady-state [Glu]o: 30-50%
[1]; low Na+/high K+, Ouabain or L-AA
  ACPD modulation of [Glu]o under disrupted Na+ gradient: failed to modulate [Glu]o
[5]
  dose required for enhancement of uptake: ≈ 500 μM
[5]; acute application of up to 3 hours
  acute effect on uptake: ineffective in enhancing uptake
[5]; astrocytes from animals >P9, n=11
  enhancement of uptake: 35.2%±3.8%
[5]; astrocytes from neonatal rat pups, n=14
  enhancement of uptake: 24.5%±2.4%
[5]; hippocampal and spinal cord astrocytes
  enhancement of uptake by region: significant enhancement of uptake

## CN[C@H](CC(=O)O)C(=O)O [NMDA]
[1]
  effect on [Glu]o / glutamate release: ineffective
[5]
  effect on aspartate uptake: No significant effects

## C[n+]1ccc(-c2ccccc2)cc1 [MPP^+, 1-methyl-4-phenylpyridinium]
[4]
  extracellular glutamate levels elevated to: 7 µM
  elevations of extracellular glutamate levels: up to 5 fold

## C[C@@H]1C[C@@H]([C@H](O)CC2CC(=O)NC(=O)C2)C(=O)[C@@H](C)C1 [cycloheximade, cycloheximide]
[1]; 2 μg/ml
  effect on ACPD induced attenuation of [Glu]o: could not inhibit the ACPD induced attenuation of [Giu]o

## C=C(C)[C@H]1CN[C@H](C(=O)O)[C@H]1CC(=O)O [KA]
[1]
  effect on [Glu]o / glutamate release: ineffective
[5]
  effect on aspartate uptake: No significant effects

## pertussis toxin
[1]; 0.01-500 ng/ml added 6 hours prior to ACPD
  inhibition of ACPD modulation of [Glu]o: failed to inhibit ACPD modulation
[1]; applied after ACPD had been washed off
  reversal of ACPD modulation of [Glu]o: failed to reverse the modulatory effects of ACPD

## N[C@@]1(C(=O)O)CC[C@H](C(=O)O)C1 [1S3S-ACPD, (1S,3S)-1-aminocyclopentane-1,3-dicarboxylic acid]
[1]
  order of potency in mimicking ACPD effect on glutamate release: S-4CPG>1S3R-ACPD>L-CCG-I>1S3S-ACPD=QA
  effect on [Glu]o / glutamate release: reduce [Glu]o in a dose-dependent manner

## C[C@@](N)(C(=O)O)[C@H]1C[C@@H]1C(=O)O [MCCG, (2S,3S,4S)-2-methyl-2-(carboxycyclopropyl)glycine]
[1]
  antagonism of ACPD effects on [Glu]o: unable to suppress ACPD effects on [Glu]o
  antagonism of the effect of L-CCG-I on [Glu]o: failed to inhibit the effect of other mGluR agonists

## O=C(O)[C@@H]1CN[C@@H](C(=O)O)C1 (relative stereo) [PDC, 1-trans-pyrrolidine-2,4,-dicarboxylate]
[2]; 70 minutes incubation with 500 μM
  cellular glutamate content: 102.9±12.1 % of control

## CC[C@](N)(CCC(=O)O)C(=O)O [EGLU, (2S)-α-Ethylglutamic acid]
[1]
  antagonism of ACPD effects on [Glu]o: unable to suppress ACPD effects on [Glu]o
  antagonism of the effect of L-CCG-I on [Glu]o: failed to inhibit the effect of other mGluR agonists

## N[C@H](C(=O)O)c1cc(O)cc(O)c1 [DHPG, (S)-3,5-dihydroxyphenylglycine]
[1]
  effect on [Glu]o / glutamate release: ineffective

## C[C@@](N)(C(=O)O)c1ccc(C(=O)O)cc1 [MCPG, (S)-α-methyl-4-carboxyphenylglycine]
[1]
  antagonism of ACPD effects on [Glu]o: unable to suppress ACPD effects on [Glu]o
  antagonism of the effect of L-CCG-I on [Glu]o: failed to inhibit the effect of other mGluR agonists
